Publication PMC12128972, “TYRA-300, an FGFR3-selective inhibitor, promotes bone growth in two FGFR3-driven models of chondrodysplasia” (JCI Insight, 2025)
Where “and” joins values, the source holds several entries; their conditions need not be identical. Identical values can stand only once.

Experiments:
Assay type in all cases: in vivo, mouse
[1] = Pharmacokinetic study, single subcutaneous dose, plasma by LC-MS/MS; settings: for plasma concentration, individual mice: 1.2 mg/kg s.c.
Procedure: The pharmacokinetic profile of TYRA-300 in adult rats has been previously described ([31]). Because the FGFR3-driven skeletal dysplasia models are performed using neonatal mice, an experiment was designed to understand the pharmacokinetics of TYRA-300 at a relevant efficacious dose in male and female mice, ranging from 1 to 12 weeks of age. In this experiment, TYRA-300 plasma levels were measured following administration of a single 1.2 mg/kg subcutaneous dose. […] There was a similar AUCinf in 2-week-old mice (2,295 h × ng/mL). […] Cytochrome P450 enzymes are commonly responsible for the metabolism of TKIs. In mice, cytochrome P450s are not fully developed until the mice are at least 3 weeks of age ([33]), which may explain the higher level of TYRA-300 exposure in the younger mice.
C57BL/6J (The Jackson Laboratory) mice were randomized to treatment groups according to body weight. Owing to the young age of some groups, a mixture of female and male mice was used. Depending on the age of mice, 3–8 mice per group were dosed with a single subcutaneous dose of TYRA-300 (1.2 mg/kg) and then blood was collected either serially at 3 different time points (if 4 weeks of age and older) or terminally at a single time point (if 1–3 weeks of age). Mouse plasma was harvested using lithium heparin tubes at 0.5, 1, 4, 6, 8, 12, and 24 hours after dosing. Compound concentration from plasma was detected using liquid chromatography with tandem mass spectrometry at Oakland Analytics.

[2] = tested on: growth plate chondrocytes of Fgfr3^Y367C/+ mice; assay: Fgfr3Y367C/+ mice: histology and immunohistochemistry of distal femur growth plate (H&E, collagen type X, PCNA, HZC count)
Procedure: To understand the effects of TYRA-300 treatment on the growth plate cartilage and chondrocytes and the mechanism through which TYRA-300 increases bone growth, histological analysis of the femurs of Fgfr3^Y367C/+ mice was performed. […] Treatment also facilitated angiogenesis, deposition of bone matrix, and resorption of the cartilage. In addition, the overall structure of the growth plate was more organized after treatment with TYRA-300. […] The organization of the hypertrophic zone, with HZCs organized in columns, appeared similar in TYRA-300–treated Fgfr3^Y367C/+ mice and Fgfr3^+/+ mice. Within the hypertrophic zone of TYRA-300–treated mice, the HZCs were larger than in vehicle-treated mice.
(§1) The right femur and lumbar vertebrae segment L4–L6 were collected and fixed in 4% paraformaldehyde, decalcified with ethylenediaminetetraacetic acid (EDTA) 0.5 M (pH 8) for 2 or 3 weeks, and embedded in paraffin. Serial paraffin sections of 5 μm were stained with hematoxylin, eosin, and Safranin O. For immunohistochemistry, sections were labeled with antibodies against collagen type X (BIOCYC ref. [1]-CO097-05-RUO, 1:100 dilution), collagen type I (Novotec, 20151, dilution 1:1,000), pERK (Cell Signaling, 4370S, dilution 1:1,000), and PCNA (Abcam, GR3195972-6, 1:500 dilution) using the Dako Envision Kit. Images were captured with an Olympus PD70-IX2-UCB microscope and CellSens software (Olympus Life Science Solutions). Cells were counted using ImageJ software (NIH, Laboratory for Optical Computational Instrumentation).

[3] = tested on: lumbar vertebrae of Fgfr3^N534K/+ mice; assay: Fgfr3N534K/+ mice: histology of lumbar vertebrae and intervertebral disc; settings: 1.8 mg/kg daily for 21 days
Text: We also analyzed the lumbar vertebrae and intervertebral disc (Figure 5E).
as §1

[4] = 1.2 mg/kg single s.c., 1-week-old mice

For `C[C@@H](Oc1ccc2[nH]nc(-c3ccc(N4CC5(C4)CN(S(C)(=O)=O)C5)nc3)c2c1)c1c(Cl)cncc1Cl` [TYRA-300], which “plasma concentration, individual mice” value ([1]; 1 week old, 12 h, LLOQ 4 ng/mL) is on record?
Its value is 37.7 ng/mL and 35.7 ng/mL and 49.1 ng/mL.

What about the “plasma concentration, individual mice” value ([1]; 1 week old, 24 h, LLOQ 4 ng/mL) of the same compound?
The value was 4 ng/mL (2×) and 5.11 ng/mL.

And the “plasma concentration, individual mice” value ([1]; 1 week old, time 0 h, LLOQ 4 ng/mL)?
Its value is 4 ng/mL.

What about the “plasma concentration, individual mice” value ([1]; 2 weeks old, 0.5 h, LLOQ 8 ng/mL) of the same compound?
Its value is 276 ng/mL and 247 ng/mL and 312 ng/mL.

What about the “plasma concentration, individual mice” value ([1]; 2 weeks old, 1 h, LLOQ 8 ng/mL) of the same compound?
The value was 442 ng/mL and 320 ng/mL and 190 ng/mL.

What about the “plasma concentration, individual mice” value ([1]; 2 weeks old, 4 h, LLOQ 8 ng/mL) of the same compound?
The value was 196 ng/mL and 308 ng/mL and 157 ng/mL.

What about the “plasma concentration, individual mice” value ([1]; 2 weeks old, 6 h, LLOQ 8 ng/mL) of the same compound?
The value was 148 ng/mL and 144 ng/mL and 232 ng/mL.

What about the “plasma concentration, individual mice” value ([1]; 2 weeks old, 8 h, LLOQ 8 ng/mL) of the same compound?
The value was 50.3 ng/mL and 95.4 ng/mL and 202 ng/mL.

What about the “plasma concentration, individual mice” value ([1]; 2 weeks old, 12 h, LLOQ 8 ng/mL) of the same compound?
The value was 42.2 ng/mL and 29.1 ng/mL and 34.4 ng/mL.

And the “plasma concentration, individual mice” value ([1]; 2 weeks old, 24 h, LLOQ 8 ng/mL)?
Its value is 8 ng/mL and 10.2 ng/mL and 8.27 ng/mL.

What about the “plasma concentration, individual mice” value ([1]; 2 weeks old, time 0 h, LLOQ 8 ng/mL) of the same compound?
The value was 8 ng/mL.

What about the “plasma concentration, individual mice” value ([1]; 3 weeks old, 0.5 h, LLOQ 8 ng/mL) of the same compound?
The value was 250 ng/mL and 248 ng/mL and 229 ng/mL and 221 ng/mL.

And the “plasma concentration, individual mice” value ([1]; 3 weeks old, 1 h, LLOQ 8 ng/mL)?
The value was 293 ng/mL and 238 ng/mL and 250 ng/mL and 251 ng/mL.

What about the “plasma concentration, individual mice” value ([1]; 3 weeks old, 4 h, LLOQ 8 ng/mL) of the same compound?
Its value is 10.2 ng/mL and 12.5 ng/mL and 17.9 ng/mL and 9.9 ng/mL.

What about the “plasma concentration, individual mice” value ([1]; 3 weeks old, 6 h, LLOQ 8 ng/mL) of the same compound?
The value was 8 ng/mL (3×) and 15 ng/mL.

And the “plasma concentration, individual mice” value ([1]; 3 weeks old, 8 h, LLOQ 8 ng/mL)?
The value was 8 ng/mL.

What about the “plasma concentration, individual mice” value ([1]; 3 weeks old, 12 h, LLOQ 8 ng/mL) of the same compound?
The value was 8 ng/mL (3×) and 9.31 ng/mL.

And the “plasma concentration, individual mice” value ([1]; 3 weeks old, 24 h, LLOQ 8 ng/mL)?
Its value is 8 ng/mL.

And the “plasma concentration, individual mice” value ([1]; 3 weeks old, time 0 h, LLOQ 8 ng/mL)?
Its value is 8 ng/mL.

What about the “plasma concentration, individual mice” value ([1]; 4 weeks old, 0.5 h, LLOQ 8 ng/mL) of the same compound?
Its value is 102 ng/mL and 115 ng/mL and 172 ng/mL and 145 ng/mL and 197 ng/mL.

And the “plasma concentration, individual mice” value ([1]; 4 weeks old, 1 h, LLOQ 8 ng/mL)?
Its value is 169 ng/mL and 242 ng/mL and 178 ng/mL and 48 ng/mL.

And the “plasma concentration, individual mice” value ([1]; 4 weeks old, 4 h, LLOQ 8 ng/mL)?
The value was 39 ng/mL and 12 ng/mL (2×) and 10 ng/mL.

What about the “plasma concentration, individual mice” value ([1]; 4 weeks old, 6 h, LLOQ 8 ng/mL) of the same compound?
The value was 8 ng/mL (3×) and 16 ng/mL.

What about the “plasma concentration, individual mice” value ([1]; 4 weeks old, 8 h, LLOQ 8 ng/mL) of the same compound?
The value was 8 ng/mL.

And the “plasma concentration, individual mice” value ([1]; 4 weeks old, 12 h, LLOQ 8 ng/mL)?
Its value is 8 ng/mL.

What about the “plasma concentration, individual mice” value ([1]; 4 weeks old, 24 h, LLOQ 8 ng/mL) of the same compound?
The value was 8 ng/mL.

What about the “plasma concentration, individual mice” value ([1]; 4 weeks old, time 0 h, LLOQ 8 ng/mL) of the same compound?
Its value is 8 ng/mL.

And the “plasma concentration, individual mice” value ([1]; 6 weeks old, 0.5 h, LLOQ 8 ng/mL)?
Its value is 150 ng/mL and 198 ng/mL and 171 ng/mL and 172 ng/mL.

What about the “plasma concentration, individual mice” value ([1]; 6 weeks old, time 0 h, LLOQ 8 ng/mL) of the same compound?
Its value is 8 ng/mL.

And the “AUCinf of 3- through 12-week-old mice, times lower than average of 1- and 2-week-old mice” value ([1]; 1.2 mg/kg single s.c.)?
The value was “about 3.8 times”.

What about the maximum observed concentration [1, 4] of the same compound?
The maximum observed concentration was 287 ng/mL.

And the “mean AUCinf” value [1, 4]?
The value was 1,789 h*ng/mL.

What about the “mean AUCinf” value ([1]; 1.2 mg/kg single s.c., 2-week-old mice) of the same compound?
The value was 2,295 h*ng/mL.

And the “average AUCinf” value ([1]; 1.2 mg/kg single s.c., 3- through 12-week-old mice)?
Its value is 538 ng·h/mL.

And the “expression of PCNA in distal femoral growth plate” value ([2]; 1.2 mg/kg s.c. daily for 15 days)?
Its value is “a more well-defined positive zone within the growth plate”.

And the “number of HZCs within the ROI vs vehicle” value ([2]; 1.2 mg/kg s.c. daily for 15 days, distal femur)?
Its value is “significant decrease”.

And the “type X collagen staining in the HZCs” value ([2]; present study)?
Its value is “partial restoration”.

And the “shape of the intervertebral disc” value [3]?
Its value is “slightly modified the shape of the intervertebral disc”.
